Tested on: winter wheat (Kazan 560 variety)
Assay: Field study: winter wheat seed treatment and spraying, yield and quality of the grain
Type: in vivo
Settings: for Field germination, % / Grain mass from the main ear / Number of grains in an ear / Viability, % / Yield, dt/ha: winter wheat
Experimental: Field studies were conducted for the BHMPA Mg-salt. The effect of treatment winter wheat seeds (Kazan 560 variety) with BHMPA Mg-salt solutions on the yield and quality of the grain was examined. The field experiment was conducted at a branch of a fallow rotation. The seeds were sowed on Sep. 1, 2015, in an area covering 1.7 hectares of the experimental field located at the experimental base of Tatarstan Research Institute of Agriculture. For comparison, the seeds were treated with the BHMPA Mg-salt solution and the known growth-regulator Melaphen at the same concentrations, optimum for Melaphen.
The experiment was conducted for the following variants: • 1. Control (no seed treatment); • 2. Seed treatment with the BHMPA Mg-salt solution at a 1·10^−7% concentration; • 3. Seed treatment with the BHMPA Mg-salt solution at a 1·10^−7% concentration+spraying with the BHMPA Mg-salt solution at a 1·10^−8% concentration upon vegetation during spring tillering and earing phases; • 4. Seed treatment with the growth regulator Melaphen at a 1·10^−7% concentration; • 5. Seed treatment with Melaphen at a 1·10^−7% concentration and spraying with Melaphen at a 1·10^−8% concentration upon vegetation during spring tillering and earing phases.
The seeds were treated with the experimental compounds together with a seed disinfectant at a rate of 10 ml/T. The vegetating plants were treated at a rate of 5 ml/ha. Identical field operations appropriate for that zone as well as plant protection measures against weeds and disease, were applied in all cases.
Results of field experiments with BHMPA Mg-salt as the main growth-regulating component of said pre-sowing seed treatment combined with additional treatment of winter wheat plants with other claimed BHMPA salts, are presented in Table XXXV.

[1] = seed treatment 1 · 10^−7% + spraying plants with the same substance 1 · 10^−8%

## O=P([O-])(CO)CO.O=P([O-])(CO)CO.[Mg+2] [Mg-salt, Magnesium BHMPA Salt]
field, seed treatment plus additional spraying during spring tillering and earing phases
  plant viability: up to 61%
field, seeds treated at 1·10^−7% and plants sprayed with 1·10^−8%, control 21.7 dt/ha
  yield of winter wheat: 30.7 dt/ha
Winter wheat Kazan 560, field, pre-sowing seed treatment, control 41%
  plant viability: up to 55%
Winter wheat Kazan 560, field, pre-sowing seed treatment, control 67%
  germination rate (field): up to 70%
Seed treatment 1 · 10^−7%
  Field germination, %: 70%
  Grain mass from the main ear: 1.1 g
  Number of grains in an ear: 31
  Viability, %: 55%
  Yield, dt/ha: 29.2 dt/ha
[1]
  Field germination, %: 70%
  Grain mass from the main ear: 1.1 g
  Number of grains in an ear: 32
  Viability, %: 61%
  Yield, dt/ha: 30.7 dt/ha
